System: E. coli ATCC 10536
Assay: In-vitro micro-dilution assay for determination of antimicrobial activity
Format: cell-based
Conditions: for Average Residual Log (CFU/mL): E. coli ATCC 10536, 10^6 cells/mL in 10 mM sodium phosphate buffer, contact time 4 hours, about 37° C., plated on MacConkey agar; for antimicrobial action (in words): low concentration, E. coli ATCC 10536, 4 hours contact
Method: In-vitro Micro-dilution Assay for Determination of Antimicrobial Activity of Different Compositions:
The organism used for the assay was E. coli ATCC 10536
The procedure that was followed is given below: • a) First, the bacterial suspension corresponding to 10^6 cells/mL was prepared in 10 mM Sodium phosphate buffer. For this purpose the sodium phosphate buffer was prepared as follows: • To prepare the sodium phosphate buffer two different solutions were made. The first solution was prepared by dissolving 27.6 g of NaH2PO4.H20 (MW=138) in 500 mL of MilliQ water and made up the volume to 1 L with MilliQ water. This was then autoclaved and stored at room temperature. The molarity of the resultant solution was 0.2. • Then, the second solution was prepared by dissolving 53.62 g of […] (MW=268.1) in 500 mL of MilliQ water and made up the volume to 1 L with MilliQ water. This was then autoclaved and stored at room temperature. The molarity of the resultant solution was 0.2. • 19 mL of the first solution and 81 mL of the second solution was added together followed by the addition of 100 mL of MilliQ water to obtain a 200 mL solution of sodium phosphate buffer of molarity 0.1 with pH 7.4. • The required level of molarity that was need for the experiments were obtained by diluting the above solution. • b) Then 135 μL/well of the above bacterial suspension was taken and plated in a 96 well microtiter plate. • c) After that 15 μL of 100 mM sodium phosphate buffer was added in all well for all the samples. • d) Then the required test compositions were added in the well for the test. • e) The reaction volume for all the test samples was 300 μL. This reaction volume was adjusted by adding water. • f) The following samples were tested: • Example A: Only Culture • Example B: 1% niacinamide • Example C: 0.01% thymol • Example D: 0.01% terpineol • Example E: 0.01% thymol+0.01% terpineol • Example F: 0.01% Farnesol • Example G: 0.02% Farnesol • Example H: 1% niacinamide+0.01% Farnesol • Example I: 1% niacinamide+0.02% Farnesol • Example 1: 1% niacinamide+0.01% thymol+0.01% terpineol • Example 2: 1% niacinamide+1 μg/mL of LL-37+0.01% thymol+0.01% terpineol • For the above purpose, Thymol was procured from Nishant Aromas, India (Purity: 99%), Terpineol was also procured from Nishant Aromas, India (Purity: 99%), LL-37 (AMP) was procured from Sigma (Cat no: 94261),Niacinamide was procured from Veer Chemicals (Purity: 99%) and Farnesol was procured from Sigma-Aldrich (Cat. No: F203). • g) The contact time for the above test (for all the samples) was 4 hours and the temperature was maintained at about 37° C. • h) After the above contact time, the culture was serially diluted and plated on MacConkey Agar Medium (from Difco) and left it for 24 hours. After that, the residual colonies were counted to determine the bacterial kill/Residual Log.

| Molecule | Average Residual Log (CFU/mL) | antimicrobial action (in words) |
| --- | --- | --- |
| NC(=O)c1cccnc1 [Example B, niacinamide] | 6.42 Log (CFU/mL) | – |
| terpineol [Example D] | 6.45 Log (CFU/mL) | not effective |
| Cc1ccc(C(C)C)c(O)c1 [Example C, thymol] | 6.35 Log (CFU/mL) | not effective |
| CC(C)=CCCC(C)=CCCC(C)=CCO [Example G, Farnesol] | 6.35 Log (CFU/mL) | – |
| CC(C)=CCCC(C)=CCCC(C)=CCO [Example F, Farnesol] | 6.40 Log (CFU/mL) | – |
